In the NIST ThermoML archive (doi:10.1016/j.jct.2011.04.006):
“And” between values parts separate entries of the source, which are not always exact repeats. Equal values may be shown once. ± gives the expanded uncertainty stated by the source.

Assays:
[1] = 298.15 K; 101.33 kPa; Liquid; Vibrating tube method
[2] = excess molar enthalpy (molar enthalpy of mixing); xn = mol fraction of the nth substance listed; settings: 298.15 K, 101 kPa, Liquid, Flow calorimetry

For `CCC(C)(C)C` [2,2-dimethylbutane], the mass density [1] was 644.588 ± 0.26 kg/m3.
`CCC(C)(C)C` [2,2-dimethylbutane] + CCCCOCCCC showed an excess molar enthalpy ([2]; x2 = 0.05) of 0.0065 ± 0.000263 kcal/mol, an excess molar enthalpy ([2]; x2 = 0.1) of 0.0112 ± 0.000287 kcal/mol and an excess molar enthalpy ([2]; x2 = 0.1499) of 0.015 ± 0.000311 kcal/mol. It also gave an excess molar enthalpy ([2]; x2 = 0.2001) of 0.018 ± 0.000359 kcal/mol, an excess molar enthalpy ([2]; x2 = 0.2502) of 0.0205 ± 0.000382 kcal/mol and an excess molar enthalpy ([2]; x2 = 0.2996) of 0.0224 ± 0.000406 kcal/mol. The excess molar enthalpy ([2]; x2 = 0.3501) was 0.0237 ± 0.000406 kcal/mol, the excess molar enthalpy ([2]; x2 = 0.3998) was 0.0246 ± 0.00043 kcal/mol and the excess molar enthalpy ([2]; x2 = 0.4497) was 0.0249 ± 0.00043 kcal/mol. The excess molar enthalpy ([2]; x2 = 0.5003) was 0.0246 ± 0.00043 kcal/mol, the excess molar enthalpy ([2]; x2 = 0.5004) was 0.0245 ± 0.00043 kcal/mol and the excess molar enthalpy ([2]; x2 = 0.5499) was 0.0239 ± 0.000406 kcal/mol. The excess molar enthalpy ([2]; x2 = 0.6002) was 0.0228 ± 0.000406 kcal/mol, the excess molar enthalpy ([2]; x2 = 0.6498) was 0.0213 ± 0.000382 kcal/mol and the excess molar enthalpy ([2]; x2 = 0.6999) was 0.0197 ± 0.000359 kcal/mol. The excess molar enthalpy ([2]; x2 = 0.7501) was 0.0173 ± 0.000335 kcal/mol, the excess molar enthalpy ([2]; x2 = 0.8) was 0.0149 ± 0.000311 kcal/mol and the excess molar enthalpy ([2]; x2 = 0.85) was 0.0119 ± 0.000287 kcal/mol. For the same compound, the excess molar enthalpy ([2]; x2 = 0.9) was 0.0088 ± 0.000263 kcal/mol and the excess molar enthalpy ([2]; x2 = 0.95) was 0.00528 ± 0.000239 kcal/mol.
Work on `CCC(C)(C)C` [2,2-dimethylbutane] + CCCOCCC yielded an excess molar enthalpy ([2]; x2 = 0.05) of 0.00906 ± 0.000287 kcal/mol, an excess molar enthalpy ([2]; x2 = 0.1) of 0.0163 ± 0.000359 kcal/mol and an excess molar enthalpy ([2]; x2 = 0.15) of 0.0214 ± 0.000406 kcal/mol. The excess molar enthalpy ([2]; x2 = 0.2) was 0.0261 ± 0.000454 kcal/mol, the excess molar enthalpy ([2]; x2 = 0.2499) was 0.0298 ± 0.000478 kcal/mol and the excess molar enthalpy ([2]; x2 = 0.2998) was 0.0328 ± 0.000526 kcal/mol. The excess molar enthalpy ([2]; x2 = 0.3499) was 0.0349 ± 0.00055 kcal/mol, the excess molar enthalpy ([2]; x2 = 0.3998) was 0.036 ± 0.00055 kcal/mol and the excess molar enthalpy ([2]; x2 = 0.4501) was 0.037 ± 0.000574 kcal/mol. For the same compound, the excess molar enthalpy ([2]; x2 = 0.4995) was 0.037 ± 0.000574 kcal/mol, the excess molar enthalpy ([2]; x2 = 0.5497) was 0.0361 ± 0.00055 kcal/mol and the excess molar enthalpy ([2]; x2 = 0.6001) was 0.0347 ± 0.00055 kcal/mol. For the same compound, the excess molar enthalpy ([2]; x2 = 0.65) was 0.0325 ± 0.000526 kcal/mol, the excess molar enthalpy ([2]; x2 = 0.7001) was 0.0298 ± 0.000478 kcal/mol and the excess molar enthalpy ([2]; x2 = 0.7503) was 0.0265 ± 0.000454 kcal/mol. The excess molar enthalpy ([2]; x2 = 0.8001) was 0.0226 ± 0.000406 kcal/mol, the excess molar enthalpy ([2]; x2 = 0.85) was 0.0179 ± 0.000359 kcal/mol and the excess molar enthalpy ([2]; x2 = 0.9) was 0.0127 ± 0.000311 kcal/mol. It also gave an excess molar enthalpy ([2]; x2 = 0.95) of 0.00676 ± 0.000263 kcal/mol.
Work on `CC(C)C(C)C` [2,3-dimethylbutane] yielded a mass density [1] of 657.023 ± 0.26 kg/m3.
Work on `CC(C)C(C)C` [2,3-dimethylbutane] + CCCCOCCCC yielded an excess molar enthalpy ([2]; x2 = 0.05) of 0.00607 ± 0.000239 kcal/mol, an excess molar enthalpy ([2]; x2 = 0.1) of 0.0104 ± 0.000287 kcal/mol and an excess molar enthalpy ([2]; x2 = 0.1501) of 0.0141 ± 0.000311 kcal/mol. The excess molar enthalpy ([2]; x2 = 0.2) was 0.0172 ± 0.000335 kcal/mol, the excess molar enthalpy ([2]; x2 = 0.2502) was 0.0196 ± 0.000359 kcal/mol and the excess molar enthalpy ([2]; x2 = 0.3) was 0.0215 ± 0.000382 kcal/mol. It also gave an excess molar enthalpy ([2]; x2 = 0.3499) of 0.0228 ± 0.000406 kcal/mol, an excess molar enthalpy ([2]; x2 = 0.3998) of 0.0238 ± 0.000406 kcal/mol and an excess molar enthalpy ([2]; x2 = 0.4501) of 0.0243 ± 0.00043 kcal/mol. It also gave an excess molar enthalpy ([2]; x2 = 0.5) of 0.0243 ± 0.00043 kcal/mol, an excess molar enthalpy ([2]; x2 = 0.5002) of 0.0242 ± 0.000406 kcal/mol and an excess molar enthalpy ([2]; x2 = 0.5493) of 0.0239 ± 0.000406 kcal/mol. The excess molar enthalpy ([2]; x2 = 0.5999) was 0.0229 ± 0.000406 kcal/mol, the excess molar enthalpy ([2]; x2 = 0.6501) was 0.0217 ± 0.000382 kcal/mol and the excess molar enthalpy ([2]; x2 = 0.7) was 0.02 ± 0.000382 kcal/mol. The excess molar enthalpy ([2]; x2 = 0.75) was 0.0181 ± 0.000359 kcal/mol, the excess molar enthalpy ([2]; x2 = 0.8001) was 0.0159 ± 0.000335 kcal/mol and the excess molar enthalpy ([2]; x2 = 0.85) was 0.0133 ± 0.000311 kcal/mol. The excess molar enthalpy ([2]; x2 = 0.9001) was 0.0101 ± 0.000263 kcal/mol and the excess molar enthalpy ([2]; x2 = 0.95) was 0.00672 ± 0.000239 kcal/mol.
Compound `CC(C)C(C)C` [2,3-dimethylbutane] + CCCOCCC has an excess molar enthalpy ([2]; x2 = 0.05) of 0.00846 ± 0.000287 kcal/mol, an excess molar enthalpy ([2]; x2 = 0.1) of 0.0152 ± 0.000335 kcal/mol and an excess molar enthalpy ([2]; x2 = 0.15) of 0.0206 ± 0.000382 kcal/mol. It also gave an excess molar enthalpy ([2]; x2 = 0.2001) of 0.0252 ± 0.00043 kcal/mol, an excess molar enthalpy ([2]; x2 = 0.25) of 0.0288 ± 0.000478 kcal/mol and an excess molar enthalpy ([2]; x2 = 0.3001) of 0.0321 ± 0.000502 kcal/mol. For the same compound, the excess molar enthalpy ([2]; x2 = 0.3499) was 0.0346 ± 0.00055 kcal/mol, the excess molar enthalpy ([2]; x2 = 0.4) was 0.0364 ± 0.000574 kcal/mol and the excess molar enthalpy ([2]; x2 = 0.4498) was 0.0374 ± 0.000574 kcal/mol. The excess molar enthalpy ([2]; x2 = 0.4998) was 0.0377 kcal/mol and 0.0376 kcal/mol, the excess molar enthalpy ([2]; x2 = 0.55) was 0.0372 ± 0.000574 kcal/mol and the excess molar enthalpy ([2]; x2 = 0.5999) was 0.0359 ± 0.00055 kcal/mol. It also gave an excess molar enthalpy ([2]; x2 = 0.6501) of 0.034 ± 0.000526 kcal/mol, an excess molar enthalpy ([2]; x2 = 0.7) of 0.0314 ± 0.000502 kcal/mol and an excess molar enthalpy ([2]; x2 = 0.7502) of 0.028 ± 0.000478 kcal/mol. For the same compound, the excess molar enthalpy ([2]; x2 = 0.8) was 0.0242 ± 0.00043 kcal/mol, the excess molar enthalpy ([2]; x2 = 0.85) was 0.0193 ± 0.000382 kcal/mol and the excess molar enthalpy ([2]; x2 = 0.9) was 0.0138 ± 0.000335 kcal/mol. It also gave an excess molar enthalpy ([2]; x2 = 0.95) of 0.0075 ± 0.000287 kcal/mol.
`CCCOCCC` [dipropyl ether] gave a mass density [1] of 741.977 ± 0.24 kg/m3.
